Measurements: ChEMBL document CHEMBL3886179, “Substituted 6, 7-dialkoxy-3-isoquinoline derivatives as inhibitors of phosphodiesterase 10 (PDE 10A)” (2015)
pIC50: −log10 of the molar value. Several values for one entry are separate records, joined by “and”; a condition that tells them apart may be missing. Identical values can stand only once.

Target: cAMP and cAMP-inhibited cGMP 3',5'-cyclic phosphodiesterase 10A (Homo sapiens, UniProt Q9Y233)
Test: Diaxonhit Phosphodiesterase Assay: The phosphodiesterase assay was developed using the LANCE cAMP kit (PerkinElmer). The assay buffer contained HBSS with 5 mM HEPES, 0.1% BSA, and 1.5 mM MgCl2, pH 7.4. PDE10A (BPS Bioscience) was used at 200 pg/well (with a specific activity of 3200 pmole/min/ug with assay conditions: 10 mM Tris-HCl, pH 7.4, 10 mM MgCl2, 1 mM MnCl2, 200 uM cAMP, 2.5 kU 5' nucleotidase, 37° C., 20 min) and PDE4D3 (BPS Bioscience) was used at 100 pg/well (with a specific activity of 32713 pmole/min/ug with assay conditions: 10 mM Tris-HCl, pH 7.4, 10 mM MgCl2, 1 mM MnCl2, 200 uM cAMP, 2.5 kU 5' nucleotidase, 37° C., 20 min). The Biotin-cAMP tracer, supplied in 10 mmol/L Tris-HCl buffered (pH 8.0) salt solution with 1 mmol/L ethylenediaminetetraacetic acid (EDTA), 0.1% bovine serum albumin (BSA), and 0.05% sodium azide, is used at a dilution of 1/375. The assay detection mixture contained the LANCE Eu-W8044 labeled streptavidin 1/2250 (supplied in 50 mmol/L Tris-HCl buffer).

Chain of cAMP and cAMP-inhibited cGMP 3',5'-cyclic phosphodiesterase 10A (Q9Y233 whole entry): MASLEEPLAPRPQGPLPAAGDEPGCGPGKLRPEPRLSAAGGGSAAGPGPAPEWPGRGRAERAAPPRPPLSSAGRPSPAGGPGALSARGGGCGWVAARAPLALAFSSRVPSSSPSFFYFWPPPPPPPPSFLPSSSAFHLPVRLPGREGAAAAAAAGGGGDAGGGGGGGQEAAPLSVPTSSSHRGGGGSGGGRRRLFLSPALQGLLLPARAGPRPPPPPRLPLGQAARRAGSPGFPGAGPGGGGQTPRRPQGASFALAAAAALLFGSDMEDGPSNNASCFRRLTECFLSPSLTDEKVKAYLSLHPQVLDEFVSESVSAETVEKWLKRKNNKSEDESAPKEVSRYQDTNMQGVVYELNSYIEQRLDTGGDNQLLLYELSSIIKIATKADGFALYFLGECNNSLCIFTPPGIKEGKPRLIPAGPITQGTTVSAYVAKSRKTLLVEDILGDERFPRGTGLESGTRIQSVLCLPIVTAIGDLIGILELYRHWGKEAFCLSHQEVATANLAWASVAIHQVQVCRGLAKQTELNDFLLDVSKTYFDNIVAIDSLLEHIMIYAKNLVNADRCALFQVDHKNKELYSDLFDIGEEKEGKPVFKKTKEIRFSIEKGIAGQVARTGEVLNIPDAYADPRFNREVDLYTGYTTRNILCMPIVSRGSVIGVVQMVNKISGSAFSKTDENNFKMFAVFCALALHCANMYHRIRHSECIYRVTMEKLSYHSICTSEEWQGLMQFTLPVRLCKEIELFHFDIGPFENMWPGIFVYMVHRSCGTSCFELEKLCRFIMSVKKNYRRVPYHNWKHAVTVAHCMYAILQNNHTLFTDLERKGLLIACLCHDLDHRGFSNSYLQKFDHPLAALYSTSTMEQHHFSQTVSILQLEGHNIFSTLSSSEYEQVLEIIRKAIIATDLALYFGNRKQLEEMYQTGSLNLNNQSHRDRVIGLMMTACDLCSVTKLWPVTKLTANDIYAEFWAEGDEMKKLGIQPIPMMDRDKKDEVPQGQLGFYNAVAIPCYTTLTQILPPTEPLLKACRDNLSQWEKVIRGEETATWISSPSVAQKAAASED

SMILES	pIC50
COc1cc2c(Cc3cnc4ccccc4c3)cnc(C3CC3)c2cc1OC	7.38
CCOc1cccc2ccc(Cc3cncc4cc(OC)c(OC)cc34)nc12	7.31
CCCc1ncc(Cc2ccc3cccc(OCC(N)=O)c3n2)c2cc(OC)c(OC)cc12	8.85 and 8.28
COc1cc2c[n+]([O-])cc(Cc3ccc4oc5ccccc5c4c3)c2cc1OC	7.51
CCOc1cc2c(Cc3ccc4oc5ccccc5c4c3)cncc2cc1OC	6.54
COc1cc2c(Cc3ccc4ccccc4c3)cnc(C)c2cc1OC	6.71
CCCc1ncc(Cc2ccc3cccc(OCCO)c3n2)c2cc(OC)c(OC)cc12	8.18
CCc1ncc(Cc2ccc3cccc(C#N)c3n2)c2cc(OC)c(OC)cc12	7.34
COc1cc2cncc(Cc3ccc4cccc(O)c4n3)c2cc1OC	7.64
CCc1ncc(Cc2ccc3oc4ccccc4c3c2)c2cc(OC)c(OC)cc12	6.47
CCc1ncc(Cc2cnc3ccccc3c2)c2cc(OC)c(OC)cc12	7.72
CCCc1ncc(Cc2cc3cc(OC)ccc3nc2NCC)c2cc(OC)c(OC)cc12	8.01
CCc1ncc(Cc2cnc3ccc(NS(N)(=O)=O)cc3c2)c2cc(OC)c(OC)cc12	8.34
COc1cc2c(Cc3ccc4oc5ccccc5c4c3)cnc(C)c2cc1OC	6.74
CCCc1ncc(Cc2cc3ccccc3cn2)c2cc(OC)c(OC)cc12	6.80
CCOc1cc2c(Cc3cnc4ccccc4c3)cncc2cc1OC	7.04
COc1cc2cncc(Cc3cnc4ccccc4c3)c2cc1OC	7.89
CCOC(=O)COc1cccc2ccc(Cc3cncc4cc(OC)c(OC)cc34)nc12	7.29
CCCc1ncc(Cc2cnc3ccccc3c2)c2cc(OC)c(OC)cc12	7.96
COc1cc2cncc(Cc3ccc4c(c3)CCC(C)(C)O4)c2cc1OC	7.09
CCc1ncc(Cc2cc3ccccc3cn2)c2cc(OC)c(OC)cc12	7.49

SMILES	pIC50
COc1cc2c(Cc3ccc4nc(C)ccc4c3)cnc(-c3ccccc3)c2cc1OC	6.83
CCc1ncc(Cc2ccc3cccc(NC(N)=O)c3n2)c2cc(OC)c(OC)cc12	7.24
COc1cc2cncc(Cc3ccc4ccccc4c3)c2cc1OC	6.98
c1ccc2c(c1)oc1ccc(Cc3cncc4cc5c(cc34)OCCO5)cc12	5.12
COc1cc2cncc(Cc3ccc4c(c3)Cc3ccccc3-4)c2cc1OC	6.96
CCCc1ncc(Cc2cnc3cc(C)ccc3c2)c2cc(OC)c(OC)cc12	8.28
COc1cc2cncc(Cc3cnc4cc(C)ccc4c3)c2cc1OC	8.92
CCc1ncc(Cc2cnc3ccc(N)cc3c2)c2cc(OC)c(OC)cc12	7.89
COc1cc2cncc(Cc3coc4ccc(Cl)cc4c3=O)c2cc1OC	7.70
c1ccc2c(c1)oc1ccc(Cc3cncc4cc5c(cc34)OCO5)cc12	5.50
COc1cc2cncc(Cc3ccc4cccc(OCC(N)=O)c4n3)c2cc1OC	7.68
CCc1ncc(Cc2cc3cc(OC)ccc3nc2O)c2cc(OC)c(OC)cc12	7.36
COc1cc2cncc(Cc3coc4ccc(F)cc4c3=O)c2cc1OC	7.42
COc1ccc2cc(Cc3cncc4cc(OC)c(OC)cc34)ccc2c1	7.27
CCc1ncc(Cc2ccc3cccc(C(N)=O)c3n2)c2cc(OC)c(OC)cc12	7.11
COc1cc2c(Cc3ccc4nc(C)ccc4c3)cnc(C3CCCCC3)c2cc1OC	6.43
CCCOc1cccc2ccc(Cc3cncc4cc(OC)c(OC)cc34)nc12	6.50
COc1cc2cncc(Cc3cc4ccccc4cn3)c2cc1OC	7.52
COc1cc2cncc(Cc3ccc4nc(C)ccc4c3)c2cc1OC	8.19
CCOc1c(Cc2cncc3cc(OC)c(OC)cc23)cnc2c1cnn2CC	5.45
COc1cc2cncc(Cc3ccc4[nH]cnc4c3)c2cc1OC	7.13

SMILES	pIC50
CCCc1ncc(Cc2ccc3oc4ccccc4c3c2)c2cc(OC)c(OC)cc12	6.56
COc1cc2cncc(Cc3coc4ccc(C)cc4c3=O)c2cc1OC	8.29
COc1cc2cncc(Cc3ccc4oc5ccccc5c4c3)c2cc1OC	8.12
COc1cc2cncc(Cc3cc4ccccc4nc3N(C)C)c2cc1OC	6.85
COc1ccc2nc(O)c(Cc3cncc4cc(OC)c(OC)cc34)cc2c1	7.60
CCc1ncc(Cc2ccc3nc(C)ccc3c2)c2cc(OC)c(OC)cc12	7.55
CCCc1ncc(Cc2ccc3cccc(NS(N)(=O)=O)c3n2)c2cc(OC)c(OC)cc12	9.09
CCc1ncc(Cc2cnc3ccc(NS(C)(=O)=O)cc3c2)c2cc(OC)c(OC)cc12	7.80
COc1cc2cncc(Cc3ccc4ccccc4n3)c2cc1OC	6.68
COc1cc2cnc(C)c(Cc3ccc4ccccc4c3)c2cc1OC	5.97
CCc1ncc(Cc2ccc3cccc(NS(C)(=O)=O)c3n2)c2cc(OC)c(OC)cc12	8.08
CCCc1ncc(Cc2ccc3cccc(O)c3n2)c2cc(OC)c(OC)cc12	7.70
CCOc1cc2cncc(Cc3cnc4ccccc4c3)c2cc1OCC	6.77
CCCCc1ncc(Cc2cnc3cc(C)ccc3c2)c2cc(OC)c(OC)cc12	6.02
COc1cc2c(Cc3ccc4nc(C)ccc4c3)cnc(CC(C)C)c2cc1OC	7.51
COc1cc2cncc(Cc3ccc4c(c3)oc(=O)n4C)c2cc1OC	8.44
CCCc1ncc(Cc2cc3ccccc3nc2O)c2cc(OC)c(OC)cc12	7.44
COc1cc2cncc(Cc3cc4ccccc4nc3Cl)c2cc1OC	7.02
CCCc1ncc(Cc2cc3cc(OC)ccc3nc2OCCNC(C)=O)c2cc(OC)c(OC)cc12	7.19
CCc1ncc(Cc2cnc3ccc(N4CCCC4=O)cc3c2)c2cc(OC)c(OC)cc12	7.82
CCc1ncc(Cc2ccc3cccc(NC(C)=O)c3n2)c2cc(OC)c(OC)cc12	7.77

SMILES	pIC50
CCCCc1ncc(Cc2ccc3nc(C)ccc3c2)c2cc(OC)c(OC)cc12	6.81
CCc1ncc(Cc2cnc3ccc(O)cc3c2)c2cc(OC)c(OC)cc12	7.55
CCCc1ncc(Cc2ccc3c(c2)oc(=O)n3C)c2cc(OC)c(OC)cc12	8.36
CCn1ncc2c(Cl)c(Cc3cncc4cc(OC)c(OC)cc34)cnc21	6.48
CCCCc1ncc(Cc2cnc3ccccc3c2)c2cc(OC)c(OC)cc12	7.04
COc1cc2cncc(Cc3ccc4cccc(OCc5cccnc5)c4n3)c2cc1OC	7.05
COc1cc2cncc(Cc3ccc4ncccc4c3)c2cc1OC	7.27
COc1cc2c(Cc3ccc4nc(C)ccc4c3)cnc(C3CC3)c2cc1OC	7.60
CCCc1ncc(Cc2cc3cc(OCC)ccc3nc2O)c2cc(OC)c(OC)cc12	7.00
CCc1ncc(Cc2ccc3cccc(NC(=O)C(N)=O)c3n2)c2cc(OC)c(OC)cc12	7.77
CCc1ncc(Cc2ccc3cccc(NS(N)(=O)=O)c3n2)c2cc(OC)c(OC)cc12	9.28
COc1ccc2cc(Cc3cncc4cc(OC)c(OC)cc34)cnc2c1	7.74
COc1cc2cncc(Cc3ccc4cccc(OCc5ccncc5)c4n3)c2cc1OC	6.67
COc1cc2cncc(Cc3ccc4c(c3)CCN4C)c2cc1OC	6.88
CCc1ncc(Cc2ccc3cccc(NS(=O)(=O)CC)c3n2)c2cc(OC)c(OC)cc12	8.46
COc1cc2cncc(Cc3ccc4c(c3)OCCN4C)c2cc1OC	7.15
CCn1ncc2c(O)c(Cc3cncc4cc(OC)c(OC)cc34)cnc21	6.62
COc1cc2cncc(Cc3coc4ccccc4c3=O)c2cc1OC	7.39
